Like-named read-outs stand apart in the source and are kept apart here.
Experiments:
[1] = tested on: Normal human keratinocytes (newborn infant foreskin-derived epidermal keratinocyte); test: Growth of normal human keratinocytes (H3-thymidine uptake); type: cell-based; conditions: for IC50: Homo sapiens, Keratinocyte, H3-thymidine uptake, 22 h + 2 h culture, 0.01 to 10 μM, read-out: Human keratinocyte growth inhibition IC50
Protocol: Normal human keratinocytes (purchased from Kurabo Industries, Ltd.) were inoculated on a 48-well plate (Coster Corp.) at a concentration of 4×10^4 cells/well/500 μL, and were cultured overnight at 37° C. in the presence of 5% CO2. A compound of the present invention or activated vitamin D3 (Calcitriol; Wako Pure Chemical Industries, Ltd.) was added to a final concentration of 0.01 to 10 μM, and the cells were cultured for 22 hours. H^3-thymidine (Amersham plc.) was added, and the cells were incubated for another 2 hours. Subsequently, the cells were recovered after washing, and in a liquid scintillation counter (Packard Instrument Company, Inc.), the radioactivity taken up by the cells was measured. The results are presented as a ratio of the radioactivity taken up by the cells upon drug addition, with respect to the radioactivity of the case with no drug addition (Control), which was taken as 100%. The IC50 value, which is the concentration of the drug for inhibiting the uptake of radioactivity to 50% with respect to the control, was lower in the case of any of the Compounds 1 to 8 than in the case of Calcitriol.

VCAM-1 expression = VCAM-1 expression inhibitory activity in TNFα-stimulated HUVEC; type: cell-based; conditions: Homo sapiens, TNFα 10 ng/mL, 4.5 hours, read-out: VCAM-1 expression inhibitory action IC50
Protocol: Human umbilical vein endothelial cells (HUVEC) (Sanko Junyaku Co., Ltd.) were suspended in EGM-2 medium (Sanko Junyaku Co., Ltd.) at a concentration of 5×10^4 cells/mL, and were inoculated on a 96-well plate (Corning Corp.) at a concentration of 1×10^4 cells/well. The cells were cultured at 37° C. in the presence of 5% CO2 for 4 days, then 100 μL of the medium was removed, and 25 μL each of the substance under test and TNFα (final concentration 10 ng/mL, PeproTech, Inc.) were added. After incubating the cells for 4.5 hours at 37° C., the medium was removed, and each well was washed once with 100 μL of Hank's Balanced Salt Solution containing 0.5% bovine serum albumin and 0.02% sodiumazide (HBSS/BSA). Subsequently, 30 μL of a blocking solution (1% whole goat serum (ICN Biomedicals, Inc.)/HBSS/BSA) was added, and the plate was left to stand for 30 minutes on the ice. After washing once with 100 μL of HBSS/BSA, 1 μg/mL of anti-human VCAM-1 antibody (Genzyme-Techne, Inc.) was added to each well in an amount of 30 μL, and the plate was incubated on the ice for 1 hour. After washing three times with HBSS/BSA (200 μL), peroxidase-labeled goat anti-mouse IgG antibody (Pierce Biotechnology, Inc.) diluted 2000-folds with HBSS/BSA was added in an amount of 30 μL/well, and was allowed to react for 1 hour. After washing 5 times with HBSS/BSA as described above, 100 μL/well of TMB substrate (Moss Inc.) was added, an enzymatic reaction was allowed to proceed for 15 to 30 minutes at 25° C., and then 1 mol/L sulfuric acid was added in an amount of 25 μL/well to stop the reaction. The absorbance at 492 nm was measured using a reference wavelength of 620 nm and using a 96-well plate spectrophotometer, Multiscan MS-UV (Labsystems, Inc.). The inhibitory rate was determined by taking the absorbance for the case of TNFα stimulation without drug addition, as 100%. In addition, the measurement was performed three times for each group.

[2] = tested on: TPA-stimulated SKH1-hrBR-Hairless mouse; test: Skin thickening in TPA-stimulated hairless mouse; type: in vivo; conditions: dorsal application of 50 μL after 10 nmol TPA, measured after 24 hours (FIG. 1)
Protocol: As an animal model for psoriasis, hairless mice stimulated with 12-O-tetradecanoylphorbol-13-acetate (hereinafter, referred to as TPA) were used (Sato, et al., Dermatology (1996) 192, 233-238). That is, on the dorsal side of a 7 to 8 weeks old female SKH1-hrBR-Hairless mouse (Charles River Laboratories Japan, Inc.), 10 nmol of TPA dissolved in acetone was applied, and then 50 μL of either the drug dissolved in acetone or Bonalfa (registered trademark) High (Teijin Pharma, Ltd.) was applied. After 24 hours, the thickness of the skin on the dorsal side was measured using a dial thickness gauge (Peacock G-1A, Ozaki MFG. Co., Ltd.), and the difference between the measured skin thickness and the skin thickness measured before TPA application was determined. The thickening of the skin thickness was suppressed by the application of the activated vitamin D3 preparation (Bonalfa (registered trademark) High). Also, the thickening of the skin thickness was suppressed by the application of the Compound 4.

| IC50 (VCAM-1 expression) | Compound | IC50 ([1]; 24 h) | IC50 [1] | Efficacy relative to Calcitriol (keratinocyte growth inhibition IC50) ([1]; compared with Calcitriol) | Thickening of the skin thickness [2] |
| --- | --- | --- | --- | --- | --- |
| 5 nM | COc1cc(-c2cncc(CN(c3ccc(SC)cc3)C3CCN(Cc4ccnc(-c5cc(OC)c(OC)c(OC)c5)c4)CC3)c2)cc(OC)c1OC [Compound 2] | 44 nM |  |  |  |
| 80 nM | COc1cc(-c2cc(CN3CCC(N(C)Cc4ccnc(-c5cc(OC)c(OC)c(OC)c5)c4)CC3)ccn2)cc(OC)c1OC [Compound 1] | 66 nM |  |  |  |
| 20 nM | COc1ccc(N(Cc2ccnc(-c3cc(OC)c(OC)c(OC)c3)c2)C2CCN(Cc3ccnc(-c4cc(OC)c(OC)c(OC)c4)c3)CC2)cc1 [Compound 4] | 247 nM | 247 nM | about 8 times | suppressed |
|  | COc1cc(OC)cc(N(Cc2ccnc(-c3cc(OC)c(OC)c(OC)c3)c2)C2CCN(Cc3ccnc(-c4cc(OC)c(OC)c(OC)c4)c3)CC2)c1 [Compound 3] | 49 nM |  |  |  |

Source: patent US20090042901A1, “AGENT FOR PREVENTION/THERAPY OF DISEASE CAUSED BY KERATINOCYTE GROWTH” (KOWA CO., LTD., priority 2005, published 2009)
